# Active and inactive are the calls of the source.
# Key:
# [1] = target: T1, Adenosylmethionine-8-amino-7-oxononanoate aminotransferase (Mycobacterium tuberculosis, UniProt P9WQ81); experiment: Mycobacterium tuberculosis BioA enzyme inhibitor Measured in Biochemical System Using Plate Reader - 2163-02_Inhibitor_Dose_CherryPick_Activity.; assay type: functional, Mycobacterium tuberculosis UT205
# T1 sequence (P9WQ81 whole entry): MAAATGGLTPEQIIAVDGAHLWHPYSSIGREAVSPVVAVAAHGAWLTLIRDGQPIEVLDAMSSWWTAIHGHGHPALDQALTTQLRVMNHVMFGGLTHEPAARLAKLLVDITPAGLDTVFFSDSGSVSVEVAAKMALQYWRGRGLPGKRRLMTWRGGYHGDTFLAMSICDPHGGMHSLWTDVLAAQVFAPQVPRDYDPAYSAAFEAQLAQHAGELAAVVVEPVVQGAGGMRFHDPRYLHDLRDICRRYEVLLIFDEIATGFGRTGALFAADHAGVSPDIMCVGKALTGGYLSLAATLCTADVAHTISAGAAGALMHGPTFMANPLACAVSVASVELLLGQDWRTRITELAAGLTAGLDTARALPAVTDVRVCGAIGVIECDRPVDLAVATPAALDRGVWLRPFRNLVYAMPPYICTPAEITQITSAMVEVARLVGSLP
# Paired box protein Pax-8 = Paired box protein Pax-8 (Homo sapiens, UniProt Q06710); experiment: PAX8 transcriptional activity inhibition in RMG-I – RMG-I cells, luciferase, cherry-pick, dose response (AID 687027); assay type: functional, cell-based;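 further: luciferase reporter driven by Pax8 target thyroperoxidase promoter measured by SteadyGlo luminescence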
# Paired box protein Pax-8, sequence (Q06710 whole entry): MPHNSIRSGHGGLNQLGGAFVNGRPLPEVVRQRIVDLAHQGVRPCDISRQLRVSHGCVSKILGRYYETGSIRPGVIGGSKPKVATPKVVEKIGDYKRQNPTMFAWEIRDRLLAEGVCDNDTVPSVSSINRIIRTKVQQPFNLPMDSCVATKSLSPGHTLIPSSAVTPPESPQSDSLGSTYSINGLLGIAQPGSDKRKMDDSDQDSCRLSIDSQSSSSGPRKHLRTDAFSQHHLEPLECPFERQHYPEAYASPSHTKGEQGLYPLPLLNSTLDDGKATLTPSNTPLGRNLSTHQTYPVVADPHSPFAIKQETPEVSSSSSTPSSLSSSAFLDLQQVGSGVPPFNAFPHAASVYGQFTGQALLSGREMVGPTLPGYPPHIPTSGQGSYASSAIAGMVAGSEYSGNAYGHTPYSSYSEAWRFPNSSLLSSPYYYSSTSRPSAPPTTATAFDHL
# [2] = OVCAR-3 cell viability loss – plate reader, dry powder samples, PAX8 inhibitor project, dose response (AID 743044); assay type: functional, cell-based
# [3] = IGROV1 cell killing – plate reader, dry powder samples, PAX8 inhibitor project, dose response (AID 743043); assay type: functional, cell-based; conditions: IGROV-1
# [4] = OVCAR8 cell viability loss – plate reader, dry powder samples, PAX8 project, dose response (AID 743197); assay type: functional, cell-based; conditions: OVCAR-8
# cells [5] = assay type: functional, cell-based
# [6] = target: T2, Trace amine-associated receptor 1 (Homo sapiens, UniProt Q96RJ0); experiment: Fluorescence-based cell-based high throughput dose response assay to identify agonists of the human trace amine associated receptor 1 (TAAR1).; assay type: functional
# T2 sequence (Q96RJ0 whole entry): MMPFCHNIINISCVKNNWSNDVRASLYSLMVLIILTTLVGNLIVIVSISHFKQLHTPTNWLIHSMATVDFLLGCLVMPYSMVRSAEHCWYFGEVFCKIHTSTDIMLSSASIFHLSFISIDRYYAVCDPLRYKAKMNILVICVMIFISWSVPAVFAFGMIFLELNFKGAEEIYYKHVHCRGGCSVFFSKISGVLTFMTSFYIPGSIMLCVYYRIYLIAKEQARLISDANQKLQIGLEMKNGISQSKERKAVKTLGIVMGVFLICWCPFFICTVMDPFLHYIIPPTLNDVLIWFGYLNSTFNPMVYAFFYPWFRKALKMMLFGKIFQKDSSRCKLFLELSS
# [7] = target: T2, Trace amine-associated receptor 1; experiment: Counterscreen for agonists of the human trace amine associated receptor 1 (hTAAR1): Fluorescence-based cell-based high throughput dose response assay to identify hTAAR1 agonist that also desensitize TAAR1 receptor response.; assay type: functional
# cells [8] = assay type: functional, cell-based; remark: listed apart in the source
# [9] = target: Heat shock protein HSP 90-alpha (Homo sapiens, UniProt P07900); assay type: functional, organism-based
# [10] = intracellular Trypanosoma cruzi inhibitors in host cells – cell-based, plate reader, cherry-pick samples, set 3, dose response (AID 651818); assay type: functional;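 further: compounds incubated with infected cells for about four days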
# [11] = activation of miR-122 Renilla sensor silencing – cell-based, Huh7 psiCHECK-miR122, Renilla luciferase, cherry-picked, dose response (AID 651956); assay type: functional;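 further: huh7 hepatoma cells stably carrying a psiCHECK-2 miR-122 sensor plasmid; renilla luciferase signal reporting endogenous miR-122 activity after 48 h compound exposure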
# [12] = tested on: Streptococcus sp. 'group A'; experiment: Streptococcus pyogenes SK(-)GAS viability under kanamycin – luminescence, BacTiterGlo, confirmation, counter-screen for streptokinase expression inhibitor project, dose response (AID 1900); assay type: functional, organism-based
# Streptococcus = experiment: GAS UMAA2166 growth inhibition – luminescence, BacTiterGlo, counter-screen for streptokinase expression inhibitor project, dose response (AID 1915); assay type: functional, organism-based;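 further: potency for reduction of bacterial viability or growth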
# [13] = target: T3, DNA repair and recombination protein RAD54-like (Homo sapiens, UniProt Q92698); experiment: RAD54 Holliday junction migration blockers – biochemical, fluorescence, cherry-picked samples, dose series, confirmation (AID 651657); assay type: functional
# T3 sequence (Q92698 whole entry): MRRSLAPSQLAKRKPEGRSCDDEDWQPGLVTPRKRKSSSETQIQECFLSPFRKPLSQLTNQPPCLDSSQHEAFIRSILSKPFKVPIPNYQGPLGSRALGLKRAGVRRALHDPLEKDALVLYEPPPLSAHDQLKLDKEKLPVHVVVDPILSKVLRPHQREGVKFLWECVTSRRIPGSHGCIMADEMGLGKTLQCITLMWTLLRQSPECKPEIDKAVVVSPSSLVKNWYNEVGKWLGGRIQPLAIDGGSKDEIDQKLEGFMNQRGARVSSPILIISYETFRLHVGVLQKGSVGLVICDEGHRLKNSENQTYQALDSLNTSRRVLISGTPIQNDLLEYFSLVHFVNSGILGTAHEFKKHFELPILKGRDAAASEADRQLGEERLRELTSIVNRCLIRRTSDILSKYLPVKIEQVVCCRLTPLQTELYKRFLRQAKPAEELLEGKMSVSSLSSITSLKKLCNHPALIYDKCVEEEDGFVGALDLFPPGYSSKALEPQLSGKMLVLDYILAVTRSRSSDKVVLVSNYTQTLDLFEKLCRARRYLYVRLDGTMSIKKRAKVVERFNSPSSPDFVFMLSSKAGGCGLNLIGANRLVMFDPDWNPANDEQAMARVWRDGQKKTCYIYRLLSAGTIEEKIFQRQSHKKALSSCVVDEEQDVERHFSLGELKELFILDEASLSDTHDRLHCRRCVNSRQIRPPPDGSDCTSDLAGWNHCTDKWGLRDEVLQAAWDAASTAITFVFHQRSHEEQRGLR
# [14] = target: T4, Long-chain-fatty-acid--AMP ligase FadD28 (Mycobacterium tuberculosis, UniProt P9WQ59); experiment: Fluorescence polarization aasay to screen for inhibitors that compete for the binding of FadD28 to a bisubstrate Measured in Biochemical System Using Plate Reader - 2147-01_Inhibitor_Dose_CherryPick_Activity.; assay type: functional, Mycobacterium tuberculosis H37Rv
# T4 sequence (P9WQ59 whole entry): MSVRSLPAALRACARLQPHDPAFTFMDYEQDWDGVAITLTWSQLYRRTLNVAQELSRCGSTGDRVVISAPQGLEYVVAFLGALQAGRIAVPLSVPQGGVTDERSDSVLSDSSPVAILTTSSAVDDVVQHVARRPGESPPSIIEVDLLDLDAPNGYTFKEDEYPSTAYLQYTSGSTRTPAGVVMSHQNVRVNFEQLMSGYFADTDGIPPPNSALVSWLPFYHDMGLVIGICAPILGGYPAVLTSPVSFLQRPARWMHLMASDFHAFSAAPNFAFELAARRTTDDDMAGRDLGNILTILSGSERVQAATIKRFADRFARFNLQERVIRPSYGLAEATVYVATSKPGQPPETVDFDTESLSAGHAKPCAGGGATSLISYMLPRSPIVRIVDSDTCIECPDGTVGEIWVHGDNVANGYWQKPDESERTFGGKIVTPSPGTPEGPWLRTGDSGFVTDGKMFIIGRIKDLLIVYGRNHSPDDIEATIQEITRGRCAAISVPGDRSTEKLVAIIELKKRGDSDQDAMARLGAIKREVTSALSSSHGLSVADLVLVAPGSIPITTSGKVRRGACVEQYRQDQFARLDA
# Fatty acid synthase [15] = target: T5, Fatty acid synthase (Homo sapiens, UniProt P49327); experiment: inhibition of human FAS-TE enzyme activity – biochemical, endpoint fluorescence intensity, uHTS hits, dose response (AID 624327); assay type: functional;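 further: fluorescence from hydrolysis of an O-methyl fluorescein acyl ester substrate by the enzyme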
# T5 sequence (P49327 whole entry): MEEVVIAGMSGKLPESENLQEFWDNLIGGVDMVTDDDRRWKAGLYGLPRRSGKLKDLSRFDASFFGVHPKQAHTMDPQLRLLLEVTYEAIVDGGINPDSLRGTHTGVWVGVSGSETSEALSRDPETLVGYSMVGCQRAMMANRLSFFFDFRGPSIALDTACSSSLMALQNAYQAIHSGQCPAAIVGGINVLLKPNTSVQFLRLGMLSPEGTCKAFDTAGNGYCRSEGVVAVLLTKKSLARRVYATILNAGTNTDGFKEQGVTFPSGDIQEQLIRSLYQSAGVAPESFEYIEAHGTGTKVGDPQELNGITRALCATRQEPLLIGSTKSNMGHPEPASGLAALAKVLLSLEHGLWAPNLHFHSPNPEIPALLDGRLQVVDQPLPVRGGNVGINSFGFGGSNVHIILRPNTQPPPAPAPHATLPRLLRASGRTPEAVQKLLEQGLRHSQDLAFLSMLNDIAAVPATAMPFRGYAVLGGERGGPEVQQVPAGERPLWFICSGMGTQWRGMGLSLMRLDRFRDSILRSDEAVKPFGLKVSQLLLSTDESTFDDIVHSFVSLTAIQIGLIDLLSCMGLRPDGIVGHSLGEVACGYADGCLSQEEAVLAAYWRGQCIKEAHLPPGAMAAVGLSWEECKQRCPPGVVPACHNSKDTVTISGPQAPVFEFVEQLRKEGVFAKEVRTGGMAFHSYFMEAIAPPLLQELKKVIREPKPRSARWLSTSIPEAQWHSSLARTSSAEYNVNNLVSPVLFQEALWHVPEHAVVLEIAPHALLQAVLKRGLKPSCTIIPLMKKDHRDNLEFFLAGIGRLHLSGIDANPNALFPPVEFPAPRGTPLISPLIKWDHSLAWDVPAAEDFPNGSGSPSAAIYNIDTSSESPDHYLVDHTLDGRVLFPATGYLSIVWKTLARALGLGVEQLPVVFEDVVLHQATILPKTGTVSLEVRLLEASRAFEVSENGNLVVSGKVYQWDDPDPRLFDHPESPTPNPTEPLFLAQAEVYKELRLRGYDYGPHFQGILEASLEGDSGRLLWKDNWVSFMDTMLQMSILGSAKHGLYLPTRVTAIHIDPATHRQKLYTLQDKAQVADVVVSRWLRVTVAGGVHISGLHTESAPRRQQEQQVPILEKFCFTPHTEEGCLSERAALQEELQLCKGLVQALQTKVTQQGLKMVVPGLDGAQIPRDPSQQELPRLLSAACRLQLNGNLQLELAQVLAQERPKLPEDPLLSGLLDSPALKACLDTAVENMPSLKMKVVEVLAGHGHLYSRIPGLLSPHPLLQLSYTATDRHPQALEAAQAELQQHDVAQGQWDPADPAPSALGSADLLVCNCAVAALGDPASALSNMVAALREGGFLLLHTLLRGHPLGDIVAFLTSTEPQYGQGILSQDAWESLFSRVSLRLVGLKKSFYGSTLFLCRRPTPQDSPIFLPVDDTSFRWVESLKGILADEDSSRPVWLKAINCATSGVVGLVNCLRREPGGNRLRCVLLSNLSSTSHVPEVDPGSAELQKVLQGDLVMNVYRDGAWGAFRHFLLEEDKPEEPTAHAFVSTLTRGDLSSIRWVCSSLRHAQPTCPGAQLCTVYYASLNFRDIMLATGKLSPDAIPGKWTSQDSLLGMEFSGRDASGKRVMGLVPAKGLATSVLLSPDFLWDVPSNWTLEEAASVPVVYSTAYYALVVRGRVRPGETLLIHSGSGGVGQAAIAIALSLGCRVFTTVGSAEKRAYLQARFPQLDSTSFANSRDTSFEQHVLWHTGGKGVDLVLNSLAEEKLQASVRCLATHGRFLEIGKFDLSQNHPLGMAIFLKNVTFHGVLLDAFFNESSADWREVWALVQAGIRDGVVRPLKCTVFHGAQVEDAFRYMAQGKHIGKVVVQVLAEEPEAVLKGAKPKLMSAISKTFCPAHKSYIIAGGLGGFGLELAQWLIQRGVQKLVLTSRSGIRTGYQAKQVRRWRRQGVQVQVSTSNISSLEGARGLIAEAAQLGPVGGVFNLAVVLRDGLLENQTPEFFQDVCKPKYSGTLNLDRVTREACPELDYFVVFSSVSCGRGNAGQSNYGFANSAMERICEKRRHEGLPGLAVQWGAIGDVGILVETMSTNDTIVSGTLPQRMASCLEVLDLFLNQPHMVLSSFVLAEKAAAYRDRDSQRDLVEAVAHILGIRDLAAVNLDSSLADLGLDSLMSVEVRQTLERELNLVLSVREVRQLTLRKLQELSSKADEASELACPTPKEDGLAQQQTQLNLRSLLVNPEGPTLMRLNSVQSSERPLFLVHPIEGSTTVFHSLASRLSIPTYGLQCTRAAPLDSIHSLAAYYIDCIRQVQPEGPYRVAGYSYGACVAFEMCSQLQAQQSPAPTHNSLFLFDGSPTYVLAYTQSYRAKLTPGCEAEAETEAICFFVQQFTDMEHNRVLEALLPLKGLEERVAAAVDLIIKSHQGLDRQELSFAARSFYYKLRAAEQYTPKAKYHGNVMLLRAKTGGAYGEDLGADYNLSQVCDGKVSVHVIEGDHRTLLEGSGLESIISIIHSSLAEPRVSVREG
# Fatty acid synthase [16] = target: T5, Fatty acid synthase; experiment: inhibition of human FAS-TE enzyme activity – biochemical, kinetic fluorescence intensity, dose response (AID 624326); assay type: functional;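 further: rate of fluorescence rise from hydrolysis of a fluorogenic O-methyl fluorescein ester substrate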
# [17] = target: T6, High affinity choline transporter 1 (Homo sapiens, UniProt Q9GZV3); experiment: human choline transporter blockers, potency – cell-based, 5-point CRC, membrane potential dye, dose response (AID 504840); assay type: functional
# T6 sequence (Q9GZV3 whole entry): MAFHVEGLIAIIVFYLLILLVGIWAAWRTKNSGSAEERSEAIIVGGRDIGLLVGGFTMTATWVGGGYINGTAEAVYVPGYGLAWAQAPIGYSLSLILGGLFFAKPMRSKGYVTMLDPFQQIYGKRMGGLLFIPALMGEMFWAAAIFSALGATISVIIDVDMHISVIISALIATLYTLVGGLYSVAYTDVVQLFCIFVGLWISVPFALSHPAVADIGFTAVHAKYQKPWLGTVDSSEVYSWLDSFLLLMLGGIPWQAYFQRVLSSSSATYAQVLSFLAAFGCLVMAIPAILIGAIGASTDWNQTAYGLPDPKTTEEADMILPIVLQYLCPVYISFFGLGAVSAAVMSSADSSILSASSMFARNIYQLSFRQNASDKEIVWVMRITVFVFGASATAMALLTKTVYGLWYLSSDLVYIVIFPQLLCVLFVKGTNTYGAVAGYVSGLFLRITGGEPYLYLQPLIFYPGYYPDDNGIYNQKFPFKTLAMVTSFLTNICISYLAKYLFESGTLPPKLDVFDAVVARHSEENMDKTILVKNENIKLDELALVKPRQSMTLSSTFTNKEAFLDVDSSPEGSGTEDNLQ
# Genome polyprotein = Genome polyprotein (dengue virus type 2, UniProt P29990); experiment: flavivirus cap methylation enzyme inhibition – biochemical, confirmation dose response, primary screen (AID 588689); assay type: functional
# Genome polyprotein, sequence (P29990 2492-3391 limits assumed): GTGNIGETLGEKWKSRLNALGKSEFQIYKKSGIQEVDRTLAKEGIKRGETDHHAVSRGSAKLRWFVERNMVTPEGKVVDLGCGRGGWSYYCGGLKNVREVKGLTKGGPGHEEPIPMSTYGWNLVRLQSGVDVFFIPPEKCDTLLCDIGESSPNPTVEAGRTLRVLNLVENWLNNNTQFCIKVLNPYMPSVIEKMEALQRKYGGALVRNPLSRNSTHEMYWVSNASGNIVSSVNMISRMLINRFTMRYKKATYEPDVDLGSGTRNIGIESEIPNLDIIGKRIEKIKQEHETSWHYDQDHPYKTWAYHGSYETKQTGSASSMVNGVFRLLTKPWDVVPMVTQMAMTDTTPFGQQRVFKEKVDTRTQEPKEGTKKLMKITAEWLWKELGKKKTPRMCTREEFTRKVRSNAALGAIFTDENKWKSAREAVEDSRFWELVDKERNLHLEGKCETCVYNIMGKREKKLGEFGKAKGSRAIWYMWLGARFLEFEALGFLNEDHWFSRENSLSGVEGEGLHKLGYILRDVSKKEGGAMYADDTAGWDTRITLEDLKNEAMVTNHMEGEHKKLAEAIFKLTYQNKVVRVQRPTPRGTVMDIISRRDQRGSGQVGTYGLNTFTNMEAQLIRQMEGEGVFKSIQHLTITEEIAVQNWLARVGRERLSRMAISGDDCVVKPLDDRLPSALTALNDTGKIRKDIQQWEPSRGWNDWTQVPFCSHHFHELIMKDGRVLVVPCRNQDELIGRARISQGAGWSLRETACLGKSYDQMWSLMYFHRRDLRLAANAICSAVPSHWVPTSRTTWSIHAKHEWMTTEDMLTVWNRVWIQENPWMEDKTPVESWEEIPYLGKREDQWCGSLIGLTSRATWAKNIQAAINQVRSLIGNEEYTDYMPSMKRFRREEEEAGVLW
compound,measurement,setting,value
CN1c2ccc(-c3ccccc3)cc2[C@H]2[C@H](CCN2C(=O)c2ccccc2F)[C@H]1CO,AC50,[1],0.183 µM (active)
O=C1CN(S(=O)(=O)Cc2ccccc2)C[C@@H]2[C@@H](c3ccc(C#CC4CC4)cc3)[C@@H](CO)N12,AC50,Paired box protein Pax-8,4.66 µM (active)
same,AC50,[2],5.98 µM (active)
same,AC50,[3],61 µM (active)
same,AC50,[4],53.1 µM (active)
Nc1sc2c(c1C(=O)NCCc1ccccc1)CCC2,IC50,cells [5],> 29.9 µM (inactive)
same,EC50,[6],3.36 µM (active)
same,IC50,[7],9.93 µM (active)
same,EC50,cells [8],> 29.9 µM (inactive)
CCOC(=O)c1ccc(NC(=O)CC2C(=O)OCCN2CC)cc1 (centres undefined),AC50,[9],4.65 µM (active)
O=C(c1ccncc1)N1CC[C@H]2[C@H](CO)Nc3ccc(Br)cc3[C@H]21,AC50,[1],18.5 µM (active)
CC[C@H](C)/C=C(C)/C=C/C1=CC2=C(Cl)C(=O)[C@](C)(OC(C)=O)C(=O)C2=CO1 [SCLEROTIORIN],AC50,[9],0.8 µM (active)
C[C@@H]1CN([C@H](C)CO)C(=O)c2cccc(NS(=O)(=O)c3ccc(Cl)cc3)c2O[C@@H]1CN(C)Cc1ccc(C(=O)Nc2ccccc2N)cc1,AC50,[10],9.17 µM (active)
Cc1nnc(NC(=O)CSc2nc(C(C)C)nc3sc(C)c(C)c23)s1,AC50,[11],34.8 µM (active)
Cc1cc(/C=C2\SC(=S)NC2=O)c(C)n1-c1ccc(O)cc1,EC50,[12],1.69 µM (active)
same,EC50,Streptococcus,2.36 µM (active)
same,AC50,[9],15.5 µM (active)
CCOc1cc2[nH]c(=S)n(Cc3ccc(C(=O)NCCCN(CC)CC)cc3)c(=O)c2cc1OCC,AC50,[13],40.1 µM (active)
C[C@@H]1CN([C@@H](C)CO)C(=O)Cc2cc(NC(=O)CCC(F)(F)F)ccc2O[C@H]1CN(C)Cc1ccc(Oc2ccccc2)cc1,AC50,Paired box protein Pax-8,10.6 µM (active)
same,AC50,[2],26.4 µM (active)
same,AC50,[3],41.7 µM (active)
COc1ccc(C(=O)NCc2ccc(Cl)cc2)cc1S(=O)(=O)N1CCCC1,AC50,[14],4.67 µM (active)
Clc1cccc2c3c([nH]c12)CCNC3,IC50,cells [5],> 29.9 µM (inactive)
same,EC50,[6],1.36 µM (active)
same,IC50,[7],22.1 µM (inactive)
same,EC50,cells [8],> 29.9 µM (inactive)
CCn1cc(C(=O)NCCC2=CCCCC2)c(=O)c2cc(S(=O)(=O)N(C)C)ccc21,IC50,Fatty acid synthase [15],4.69 µM (active)
same,IC50,Fatty acid synthase [16],2.74 µM (active)
C[C@@H]1CN([C@H](C)CO)S(=O)(=O)c2ccc(C#CC3CC3)cc2O[C@@H]1CN(C)C(=O)c1cccc(F)c1,AC50,[11],22.3 µM (active)
C[C@@H]1CN([C@@H](C)CO)C(=O)c2cc(N(C)C)ccc2O[C@@H]1CN(C)Cc1ccc(C(=O)Nc2ccccc2N)cc1,AC50,[10],3.57 µM (active)
O=[N+]([O-])c1ccc(S(=O)(=O)Nc2nc(-c3ccccc3)cs2)cc1,IC50,[17],4.57 µM (active)
same,IC50,Genome polyprotein,59.6 µM (active)
CC(C)(C)N(Cc1ccccc1)C(=O)COC(=O)c1ccc([N+](=O)[O-])o1,IC50,Fatty acid synthase [15],16.2 µM (active)
same,IC50,Fatty acid synthase [16],12.2 µM (active)
C[C@H](CO)N1C[C@H](C)[C@H](CN(C)S(=O)(=O)c2ccc(F)cc2)Oc2c(NC(=O)CCCCCC(=O)Nc3ccccc3N)cccc2C1=O,AC50,[10],2.58 µM (active)
COCC(=O)N(C)C[C@H]1Oc2cc(C#Cc3cccnc3)ccc2S(=O)(=O)N([C@H](C)CO)C[C@H]1C,AC50,[11],3.31 µM (active)
COc1ccc2nc(C)cc(Nc3ccc(C)cc3)c2c1,AC50,[13],19.4 µM (active)
Cc1oc(-c2ccccc2Cl)nc1CS(=O)(=O)CC(=O)NCCc1ccccc1,IC50,cells [5],18.3 µM (inactive)
same,EC50,[6],2.9 µM (active)
same,IC50,[7],8.19 µM (active)
same,EC50,cells [8],> 29.9 µM (inactive)
CN(CCc1ccccc1)C(C(=O)c1ccc2c(c1)OCO2)c1nnnn1-c1ccccc1NC(=O)OC(C)(C)C (centres undefined),IC50,cells [5],> 29.9 µM (inactive)
same,EC50,[6],0.881 µM (active)
same,IC50,[7],3.26 µM (active)
same,EC50,cells [8],> 29.9 µM (inactive)
O=C(Nc1ccc(Cc2ccncc2)cc1)c1cc([N+](=O)[O-])ccc1N1CCOCC1,IC50,Fatty acid synthase [15],1.53 µM (active)
same,IC50,Fatty acid synthase [16],1.24 µM (active)
C[C@H]1CN([C@@H](C)CO)C(=O)Cc2cc(NC(=O)Nc3ccc(C(F)(F)F)cc3)ccc2O[C@H]1CN(C)Cc1ccc(Cl)c(Cl)c1,AC50,[10],2.92 µM (active)
CC(=O)c1ccc(N2CCN(S(=O)(=O)c3c(C(=O)N4CCCC4)c(C)n(C)c3C)CC2)cc1,AC50,[1],11.6 µM (active)
